Experimental data from patent publication US12161722B2, “Bifunctional heterocyclic compound having BTK degradation function via ubiquitin proteasome pathway, and use thereof” (KOREA RESEARCH INSTITUTE OF CHEMICAL TECHNOLOGY, priority 2021, dated 2024).

Biological target: T1, WT BTK protein (Homo sapiens, UniProt Q06187)
T1 construct: measured for intracellular BTK protein levels by Western blotting; endogenous in cells; host or cells: TMD-8 or RAMOS cells
Assay: BTK protein degradation assay (Western blotting), WT BTK
Type: cell-based
Conditions: concentration range accounting for 50% degradation of WT BTK protein, TMD-8 or RAMOS cells, 24 hours
Procedure: TMD-8, RAMOS, or 293T BTK MUT (C481S) cells were treated with the synthesized compounds and measured for intracellular BTK protein levels by Western blotting. The protocol of the experiment using TMD-8 cells is as follows.
TMD-8 cells were resuspended in an RPMI1640 medium (Hyclone, SH30027.01, 10% FBS (Hyclone, SV30207.02), 1% penicillin-streptomycin (Welgene, LS 202-02) and the cell suspension was seeded at a density of 1×10^6 cells/mL in an amount of 1 mL per well into 12-well plates.
The 12-well plates were treated as follows. A 10 mM stock was 1/10 diluted in series with DMSO ([…]) to form final concentrations of 10, 1, 0.1, 0.01, 0.001, and 0.0001 mM. The compounds with such concentrations were applied to cells, followed by harvesting the cells 24 hours later. For a negative control, a 1/10 dilution of DMSO in the medium (3 mL DMSO+27 mL medium) was used.
The 1-mL cell culture in each well was passed many times through a pipette and then transferred into a 1.5-mL microtube before centrifugation (500 g, 5 min, 4° C.). The supernatant was discarded and the cell pellet was washed with PBS. After centrifugation (500 g, 5 min, 4° C.) again, the supernatant was discarded and the cell pellet was taken.
A lysis buffer was prepared as follows. RIPA buffer (Biosesang, RC2038-050-00)+0.5 mM PMSF (SIGMA, P7626)+1×Protease/Phosphatase Inhibitor (Cell signaling, 5872S) was added in an amount […] per well and left for 30 minutes on ice (vortexing at 0 and 30 minutes) before sonication (5 cycles of pulse for 10 seconds and rest for 30 seconds, 70% amplification). The supernatant obtained by centrifugation (15000 g, 15 min, 4° C.) was transferred into a new microtube. Cells in each well of 96-well plates were 1/2 diluted with the RIPA buffer and incubated at 37° C. for 30 minutes with […] of a 50:1 mixture of BCA reagents A and B in BCA Protein Assay Kit (iNtRON, 21071). After being cooled for 10 minutes, the 96-well plates were measured for absorbance at 562 nm on the BioTek, SYNERGY H1 microplate reader. Samples were prepared by protein quantification based on the absorbance measurements and then boiled at 70° C. for 10 minutes. The sample buffer used in the case was prepared by mixing a NuPAGE or a Bolt 4× sample buffer (Invitrogen) and its 10× sample reducing agent depending on the gel to be used, and protein dilution was made in a RIPI buffer.
The samples were loaded in the same amount into a NuPAGE or Bolt Bis-tris 4-12% gradient gel and allowed to run therein (200 V, 35 minutes). The separated proteins were transferred onto a […] NC membrane, using Trans-blot Turbo (BIO-RAD) (1.3 A constant, 25V limit, 15 minutes). The membrane was blocked at room temperature for 1 hour with skim milk or Intercept Blocking Buffer (LI-COR, 927-60001):0.1% TBST=1:1. The membrane was incubated with Anti BTK Rabbit (1:1,000 in 5% skim milk/0.2% TBST, size: 77 kDa, Cell signaling Technology) at 4° C. overnight O/N or at room temperature for 2 hours and with Anti GAPDH Rabbit (1:10,000 in 5% BSA/0.2% TBST, size: 36 kDa, GENETEX) and Anti β-actin mouse (1:10,000 in 5% BSA/0.2% TBST, RT, size: 43 kDa, GENETEX) at room temperature for 1 or 3 hours. Then, the membrane was washed three times with 0.5% TBST for 5 minutes each time before incubation with the second antibody Anti-Rabbit IgG (1:5,000 in 5% Skim milk/TBST, CST), IRDye® 800CW Goat anti-Rabbit IgG Secondary Antibody (1:10,000 in 5% skim/TBST, RT 45 min), or IRDye® 680RD Goat anti-Mouse IgG Secondary Antibody (1:10,000 in 5% skim/TBST, RT 45 min) for 45 minutes at room temperature in a rocker. The membrane was washed five times with 0.5% TBST for 5 minutes in each time, followed by detection with LI-COR, Odyssey. In this regard, the detection proceeded, as it was, for house-keeping genes while using SuperSignal West Pico PLUS Chemiluminescent Substrate or SuperSignal West femto Maximum Sensitivity Substrate for BTK detection. […]

T1 sequence (Q06187 whole entry): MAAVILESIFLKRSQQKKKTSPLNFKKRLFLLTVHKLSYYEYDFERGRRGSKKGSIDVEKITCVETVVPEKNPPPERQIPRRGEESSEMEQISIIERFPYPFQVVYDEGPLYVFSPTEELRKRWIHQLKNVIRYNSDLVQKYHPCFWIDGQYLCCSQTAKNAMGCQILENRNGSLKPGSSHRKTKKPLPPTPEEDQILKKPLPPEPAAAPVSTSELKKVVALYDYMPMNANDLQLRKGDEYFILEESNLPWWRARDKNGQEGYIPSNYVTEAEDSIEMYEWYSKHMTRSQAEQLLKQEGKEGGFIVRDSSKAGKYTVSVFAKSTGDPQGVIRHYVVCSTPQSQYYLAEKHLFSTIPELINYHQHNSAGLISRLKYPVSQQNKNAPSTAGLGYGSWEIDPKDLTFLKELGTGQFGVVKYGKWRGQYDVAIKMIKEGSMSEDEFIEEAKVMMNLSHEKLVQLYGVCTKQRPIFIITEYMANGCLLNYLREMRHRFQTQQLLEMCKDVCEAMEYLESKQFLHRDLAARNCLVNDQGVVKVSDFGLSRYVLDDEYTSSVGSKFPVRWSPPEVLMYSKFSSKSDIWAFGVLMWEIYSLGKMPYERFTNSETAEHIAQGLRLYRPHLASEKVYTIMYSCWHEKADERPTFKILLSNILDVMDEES

Structure (SMILES) | DC50 [nM]
Cc1cccc(C)c1Nc1nn(C)c2nc(Nc3ccc4c(c3)CN(CC(=O)N3CCC(Oc5ccc6c(c5)C(=O)N(C5CCC(=O)NC5=O)C6)CC3)CC4)ncc12 (centres unmarked) [Compound 116, 3-(6-((1-(2-(7-((3-((2,6-dimethylphenyl)amino)-1-methyl-1H-pyrazolo[3,4-d]pyrimidin-6-yl)amino)-3,4-dihydroisoquinolin-2 (1H)-yl)acetyl)piperidin-4-yl)oxy)-1-oxoisoindolin-2-yl)piperidin-2,6-one] | 1000 to 10000
Cc1cccc(C)c1Nc1nn(C)c2nc(Nc3ccc4c(c3)CN(CCC3CCN(c5ccc6c(c5)C(=O)N(C5CCC(=O)NC5=O)C6=O)CC3)CC4)ncc12 (centres unmarked) [Compound 146, 5-(4-(2-(7-((3-((2,6-Dimethylphenyl)amino)-1-methyl-1H-pyrazolo[3,4-d]pyrimidin-6-yl)amino)-3,4-dihydroisoquinolin-2 (1H)-yl)ethyl)piperidin-1-yl)-2-(2,6-dioxopiperidin-3-yl)isoindoline-1,3-dione] | 0.1 to 10
Cc1cccc(C)c1Nc1nn(C)c2nc(Nc3ccc4c(c3)CN(C(=O)C3CC5(CCN(c6ccc7c(c6)C(=O)N(C6CCC(=O)NC6=O)C7=O)CC5)C3)CC4)ncc12 (centres unmarked) [Compound 124, 5-(2-(7-((3-((2,6-dimethylphenyl)amino)-1-methyl-1H-pyrazolo[3,4-d]pyrimidin-6-yl)amino)-1,2,3,4-tetrahydroisoquinoline-2-carbonyl)-7-azaspiro[3.5]nonan-7-yl)-2-(2,6-dioxopiperidin-3-yl)isoindoline-1,3-dione] | 0.1 to 10
Cc1cccc(C)c1Nc1nn(C)c2nc(Nc3ccc(C4CCN(CC5CN(c6ccc7c(c6)C(=O)N(C6CCC(=O)NC6=O)C7=O)C5)CC4)cc3)ncc12 (centres unmarked) [Compound 169, 5-(3-((4-(4-((3-((2,6-Dimethylphenyl)amino)-1-methyl-1H-pyrazolo[3,4-d]pyrimidin-6-yl)amino)phenyl)piperidin-1-yl)methyl)azetidin-1-yl)-2-(2,6-dioxopiperidin-3-yl)isoindoline-1,3-dione] | 0.1 to 10
Cc1cccc(C)c1Nc1nn(C)c2nc(Nc3ccc(N4CCN(c5ccc6c(c5)C(=O)N(C5CCC(=O)NC5=O)C6=O)CC4)cc3)ncc12 (centres unmarked) [Compound 238, 5-(4-(4-((3-((2,6-dimethylphenyl)amino)-1-methyl-1H-pyrazolo[3,4-d]pyrimidin-6-yl)amino)phenyl)piperazin-1-yl)-2-(2,6-dioxopiperidin-3-yl)isoindoline-1,3-dione] | 0.1 to 10
Cn1nc(Nc2c(Cl)cccc2Cl)c2cnc(Nc3ccc4c(c3)CN(CC3CCN(c5ccc6c(c5)C(=O)N(C5CCC(=O)NC5=O)C6=O)CC3)CC4)nc21 (centres unmarked) [Compound 82, 5-(4-((7-((3-((2,6-Dichlorophenyl)amino)-1-methyl-1H-pyrazolo[3,4-d]pyrimidin-6-yl)amino)-3,4-dihydroisoquinolin-2 (1H)-yl)methyl)piperidin-1-yl)-2-(2,6-dioxopiperidin-3-yl)isoindoline-1,3-dione] | 0.1 to 10
Cc1cccc(C)c1Nc1nn(C)c2nc(Nc3ccc(C4CCN(C(=O)C5(F)CCN(c6ccc7c(c6)C(=O)N(C6CCC(=O)NC6=O)C7=O)CC5)CC4)cc3)ncc12 (centres unmarked) [Compound 253, 5-(4-(4-(4-((3-((2,6-dimethylphenyl)amino)-1-methyl-1H-pyrazolo[3,4-d]pyrimidin-6-yl)amino)phenyl)piperidine-1-carbonyl)-4-fluoropiperidin-1-yl)-2-(2,6-dioxopiperidin-3-yl)isoindoline-1,3-dione] | 0.1 to 10
Cc1cccc(C)c1Nc1nn(C)c2nc(Nc3ccc4c(c3)CN(CC3CCN(c5ccc6c(c5)C(=O)N(C5CCC(=O)N(COC(=O)C(C)(C)C)C5=O)C6=O)CC3)CC4)ncc12 (centres unmarked) [Compound 107, (3-(5-(4-((7-((3-((2,6-dimethylphenyl)amino)-1-methyl-1H-pyrazolo[3,4-d]pyrimidin-6-yl)amino)-3,4-dihydroisoquinolin-2 (1H)-yl)methyl)piperidin-1-yl)-1,3-dioxoisoindolin-2-yl)-2,6-dioxopiperidin-1-yl)methyl pivalate] | 0.1 to 10
Cc1cccc(C)c1Nc1nn(C)c2nc(Nc3ccc(N4CCN(CCC5CCN(c6ccc7c(c6)C(=O)N(C6CCC(=O)NC6=O)C7=O)CC5)CC4)nc3)ncc12 (centres unmarked) [Compound 157, 5-(4-(2-(4-(5-((3-((2,6-dimethylphenyl)amino)-1-methyl-1H-pyrazolo[3,4-d]pyrimidin-6-yl)amino)pyridin-2-yl)piperazin-1-yl)ethyl)piperidin-1-yl)-2-(2,6-dioxopiperidin-3-yl)isoindoline-1,3-dione] | 0.1 to 10
Cc1cccc(C)c1Nc1nn(C)c2nc(Nc3ccc(F)c(C4=CCN(C(=O)C5CN(c6ccc7c(c6)C(=O)N(C6CCC(=O)NC6=O)C7=O)C5)CC4)c3)ncc12 (centres unmarked) [Compound 263, 5-(3-(4-(5-((3-((2,6-Dimethylphenyl)amino)-1-methyl-1H-pyrazolo[3,4-d]pyrimidin-6-yl)amino)-2-fluorophenyl)-1,2,3,6-tetrahydropyridine-1-carbonyl)azetidin-1-yl)-2-(2,6-dioxopiperidin-3-yl)isoindoline-1,3-dione] | 0.1 to 10
Cn1nc(Nc2c(Cl)cccc2I)c2cnc(Nc3ccc4c(c3)CN(CC3CCN(c5ccc6c(c5)C(=O)N(C5CCC(=O)NC5=O)C6=O)CC3)CC4)nc21 (centres unmarked) [Compound 219, 5-(4-((7-((3-((2-chloro-6-iodophenyl)amino)-1-methyl-1H-pyrazolo[3,4-d]pyrimidin-6-yl)amino)-3,4-dihydroisoquinolin-2 (1H)-yl)methyl)piperidin-1-yl)-2-(2,6-dioxopiperidin-3-yl)isoindoline-1,3-dione] | 0.1 to 10
Cc1cccc(C)c1Nc1nn(C)c2nc(Nc3ccc4c(c3)CCN(CC3CCN(c5ccc6c(c5)C(=O)N(C5CCC(=O)NC5=O)C6=O)CC3)C4)ncc12 (centres unmarked) [Compound 109, 5-(4-((6-((3-((2,6-Dimethylphenyl)amino)-1-methyl-1H-pyrazolo[3,4-d]pyrimidin-6-yl)amino)-3,4-dihydroisoquinolin-2 (1H)-yl)methyl)piperidin-1-yl)-2-(2,6-dioxopiperidin-3-yl)isoindoline-1,3-dione] | 10 to 1000
Cc1cccc(C)c1Nc1nn(C)c2nc(Nc3ccc(N4CCN(C[C@@H]5CCN(c6ccc7c(c6)C(=O)N(C6CCC(=O)NC6=O)C7=O)C5)CC4)cc3)ncc12 (stereo partly drawn) [Compound 180, 5-((S)-3-((4-(4-((3-((2,6-Dimethylphenyl)amino)-1-methyl-1H-pyrazolo[3,4-d]pyrimidin-6-yl)amino)phenyl)piperazin-1-yl)methyl)pyrrolidin-1-yl)-2-(2,6-dioxopiperidin-3-yl)isoindoline-1,3-dione] | 0.1 to 10
Cc1cccc(C)c1Nc1nn(C)c2nc(Nc3ccc4c(c3)CN(C(=O)C3CCN(c5ccc6c(c5)n(C)c(=O)n6C5CCC(=O)NC5=O)CC3)CC4)ncc12 (centres unmarked) [Compound 264, 3-(5-(4-(7-((3-((2,6-Dimethylphenyl)amino)-1-methyl-1H-pyrazolo[3,4-d]pyrimidin-6-yl)amino)-1,2,3,4-tetrahydroisoquinoline-2-carbonyl)piperidin-1-yl)-3-methyl-2-oxo-2,3-dihydro-1H-benzo[d]imidazol-1-yl)piperidin-2,6-one] | 0.1 to 10
